We go through five molecules from ChEMBL document CHEMBL1126229, “Enol lactone derivatives as inhibitors of human neutrophil elastase and trypsin-like proteases” (Bioorg Med Chem Lett, 1992).

The structures appear in SMILES notation.

In experiment [1] the target is T1, Neutrophil elastase (Homo sapiens) (UniProt P08246).
T1 sequence (whole entry): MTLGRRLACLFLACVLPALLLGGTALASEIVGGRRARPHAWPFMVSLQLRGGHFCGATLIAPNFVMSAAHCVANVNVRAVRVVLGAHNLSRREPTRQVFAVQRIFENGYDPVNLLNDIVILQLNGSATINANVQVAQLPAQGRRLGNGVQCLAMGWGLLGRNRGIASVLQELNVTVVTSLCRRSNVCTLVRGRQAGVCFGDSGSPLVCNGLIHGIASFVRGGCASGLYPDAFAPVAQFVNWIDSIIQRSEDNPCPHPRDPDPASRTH
Description: Binding constant on human neutrophil elastase was determined at 48 percent and at 60 minutes for maximum inhibition with 0 minutes persistence of inhibition.

The target of experiment [2] is T2, Chymotrypsin-like elastase family member 2A (Sus scrofa) (UniProt P08419).
T2 sequence (whole entry): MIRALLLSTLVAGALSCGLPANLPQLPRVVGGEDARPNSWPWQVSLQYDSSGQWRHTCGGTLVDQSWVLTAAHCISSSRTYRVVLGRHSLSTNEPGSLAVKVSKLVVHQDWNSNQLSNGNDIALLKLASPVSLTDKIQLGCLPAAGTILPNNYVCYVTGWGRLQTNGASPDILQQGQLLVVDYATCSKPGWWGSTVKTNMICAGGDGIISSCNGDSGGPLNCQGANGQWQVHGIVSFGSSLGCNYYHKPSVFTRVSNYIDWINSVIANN
Description: Rate constant of acylation on porcine pancreatic elastase was determined at 42 percent and at 55 minutes for maximum inhibition and no enzyme activity was recovered over the 2 h-time.

The target in experiment [3] is T1, Neutrophil elastase (Homo sapiens). Nature of the experiment: Rate constant of acylation on human neutrophil elastase was determined at 48 percent and at 60 minutes for maximum inhibition with 0 minutes persistence of inhibition.
Experiment [4] deals with T2, Chymotrypsin-like elastase family member 2A (Sus scrofa). Description: Specificity constant on porcine pancreatic elastase was determined at 42 percent and at 55 minutes for maximum inhibition and no enzyme activity was recovered over the 2 h-time.
For experiment [5] the target is unchanged. Nature of the experiment: Binding constant on porcine pancreatic elastase was determined at 42 percent and at 55 minutes for maximum inhibition and no enzyme activity was recovered over the 2 h-time.
The target of experiment [6] is T1, Neutrophil elastase (Homo sapiens). Nature of the experiment: Specificity constant on human neutrophil elastase was determined at 48 percent and at 60 minutes for maximum inhibition and with 0 minutes persistence of inhibition.
Experiment [7] has the same target. Description: Specificity constant on human neutrophil elastase was determined at 30 percent and at 35 minutes for maximum inhibition with 0 minutes persistence of inhibition.
Experiment [8] concerns the target T2, Chymotrypsin-like elastase family member 2A (Sus scrofa). Description: Specificity constant on porcine pancreatic elastase was determined at 10 percent and at 78 minutes for maximum inhibition and no enzyme activity was recovered over the 2 h-time.
Experiment [9] shares this target. Nature of the experiment: Rate constant of acylation on porcine pancreatic elastase was determined at 10 percent and at 78 minutes for maximum inhibition and no enzyme activity was recovered over the 2 h-time.
In experiment [10] the target is T1, Neutrophil elastase (Homo sapiens). Description: Binding constant on human neutrophil elastase was determined at 30 percent and at 35 minutes for maximum inhibition with 0 minutes persistence of inhibition.
Experiment [11] has as its target T2, Chymotrypsin-like elastase family member 2A (Sus scrofa). Description: Binding constant on porcine pancreatic elastase was determined at 10 percent and at 78 minutes for maximum inhibition and no enzyme activity was recovered over the 2 h-time.
For experiment [12], the target named is T1, Neutrophil elastase (Homo sapiens). Description: Rate constant of acylation on human neutrophil elastase was determined at 30 percent and at 35 minutes for maximum inhibition with 0 minutes persistence of inhibition.
The target of experiment [13] is T3, Plasminogen (Homo sapiens, UniProt P00747).
The target of experiment [14] is T4, Prothrombin (Homo sapiens, UniProt P00734).
Experiment [15] has as its target T3, Plasminogen. Nature of the experiment: Rate constant of deacylation for plasmin; Fast and could not be measured.
The target of experiment [16] is T5, Urokinase-type plasminogen activator (Homo sapiens, UniProt P00749).
Experiment [17] addresses T5, Urokinase-type plasminogen activator. This is another data set of the same source.
Description: Specificity constant on Urokinase-type plasminogen activator was determined at 0 percent and at 91 minutes for maximum inhibition and no enzyme activity was recovered over the 2 h-time
The target of experiment [18] is T3, Plasminogen. This is another data set of the same source.
The target of experiment [19] is T4, Prothrombin. Description: Rate constant of deacylation for thrombin.
For experiment [20], the target named is T4, Prothrombin. This is another data set of the same source.
The target in experiment [21] is T5, Urokinase-type plasminogen activator. Description: Rate constant of deacylation for Urokinase-type plasminogen activator.
The target is the same in experiment [22]. The source holds these as a separate data set.
The target of experiment [23] is T3, Plasminogen. The source holds these as a separate data set.
Description: Binding constant on plasmin was determined at 30 percent and at 82 minutes for maximum inhibition and no enzyme activity was recovered over the 2 h-time
Experiment [24] concerns the target T4, Prothrombin. The source holds these as a separate data set.
Experiment [25] addresses Chymotrypsinogen A (Bos taurus) (UniProt P00766). Description: Rate constant of acylation on alpha-chymotrypsin was determined at 15 percent and at 78 minutes for maximum inhibition and no enzyme activity was recovered over the 2 h-time.
The target of experiment [26] is T3, Plasminogen. Nature of the experiment: Specificity constant on plasmin was determined at 0 percent and at 95 minutes for maximum inhibition and no enzyme activity was recovered over the 2 h-time.
Experiment [27] addresses T5, Urokinase-type plasminogen activator. Description: Rate constant of acylation on Urokinase-type plasminogen activator […] was determined at 0 percent and at 98 minutes for maximum inhibition and no enzyme activity was recovered over the 2 h-time.
Experiment [28] deals with T4, Prothrombin. Nature of the experiment: Rate constant of acylation on thrombin was determined at 0 percent and at 93 minutes for maximum inhibition and no enzyme activity was recovered over the 2 h-time.
Experiment [29] concerns the target T3, Plasminogen. Description: Binding constant on plasmin was determined at 0 percent and at 95 minutes for maximum inhibition and no enzyme activity was recovered over the 2 h-time.
Experiment [30] deals with T4, Prothrombin. Nature of the experiment: Binding constant on thrombin was determined at 0 percent and at 93 minutes for maximum inhibition and no enzyme activity was recovered over the 2 h-time.
Experiment [31] addresses Chymotrypsinogen A (Bos taurus) (UniProt P00766). Nature of the experiment: Specificity constant on alpha-chymotrypsin was determined at 15 percent and at 78 minutes for maximum inhibition and no enzyme activity was recovered over the 2 h-time.
In experiment [32] the target is T4, Prothrombin. Description: Specificity constant on thrombin was determined at 0 percent and at 93 minutes for maximum inhibition and no enzyme activity was recovered over the 2 h-time.
Experiment [33] addresses T3, Plasminogen. Nature of the experiment: Rate constant of acylation on plasmin was determined at 0 percent and at 95 minutes for maximum inhibition and no enzyme activity was recovered over the 2 h-time.
The target in experiment [34] is T5, Urokinase-type plasminogen activator. Nature of the experiment: Binding constant on Urokinase-type plasminogen activator was determined at 0 percent and at 98 minutes for maximum inhibition and no enzyme activity was recovered over the 2 h-time.
Experiment [35] shares this target. Nature of the experiment: Specificity constant on Urokinase-type plasminogen activator was determined at 0 percent and at 98 minutes for maximum inhibition and no enzyme activity was recovered over the 2 h-time.
Experiment [36] addresses Chymotrypsinogen A (Bos taurus) (UniProt P00766). Description: Binding constant on alpha-chymotrypsin was determined at 15 percent and at 78 minutes for maximum inhibition and no enzyme activity was recovered over the 2 h-time.
The target is the same in experiment [37]. Nature of the experiment: Rate constant of acylation on alpha-chymotrypsin was determined.
The target of experiment [38] is T1, Neutrophil elastase (Homo sapiens). Nature of the experiment: Rate constant of acylation on human neutrophil elastase was determined at 20 percent and at 99 minutes for maximum inhibition and no enzyme activity was recovered over the 2 h-time.
The target is the same in experiment [39]. Nature of the experiment: Binding constant on human neutrophil elastase was determined at 20 percent and at 99 minutes for maximum inhibition and no enzyme activity was recovered over the 2 h-time.
In experiment [40] the target is Chymotrypsinogen A (Bos taurus) (UniProt P00766). Description: Binding constant on alpha-chymotrypsin was determined.
Experiment [41] concerns the target T2, Chymotrypsin-like elastase family member 2A (Sus scrofa). Description: Specificity constant on porcine pancreatic elastase was determined at 30 percent and at 99 minutes for maximum inhibition and no enzyme activity was recovered over the 2 h-time.
For experiment [42], the target named is Chymotrypsinogen A (Bos taurus) (UniProt P00766). Nature of the experiment: Specificity constant on alpha-chymotrypsin was determined.
In experiment [43] the target is T2, Chymotrypsin-like elastase family member 2A (Sus scrofa). Nature of the experiment: Rate constant of acylation on porcine pancreatic elastase was determined at 30 percent and at 99 minutes for maximum inhibition and no enzyme activity was recovered over the 2 h-time.
Experiment [44] addresses T6, Serine protease 1 (Homo sapiens, UniProt P07477). Nature of the experiment: Rate constant of acylation on trypsin was determined.
In experiment [45] the target is T6, Serine protease 1. Description: Specificity constant on trypsin was determined.
The target in experiment [46] is T1, Neutrophil elastase (Homo sapiens). Description: Specificity constant on human neutrophil elastase was determined at 20 percent and at 99 minutes for maximum inhibition and no enzyme activity was recovered over the 2 h-time.
Experiment [47] concerns the target T6, Serine protease 1. Description: Binding constant on trypsin was determined.
The target of experiment [48] is T2, Chymotrypsin-like elastase family member 2A (Sus scrofa). Description: Binding constant on porcine pancreatic elastase was determined at 30 percent and at 99 minutes for maximum inhibition and no enzyme activity was recovered over the 2 h-time.

T3 sequence (P00747 97-580 limits assumed): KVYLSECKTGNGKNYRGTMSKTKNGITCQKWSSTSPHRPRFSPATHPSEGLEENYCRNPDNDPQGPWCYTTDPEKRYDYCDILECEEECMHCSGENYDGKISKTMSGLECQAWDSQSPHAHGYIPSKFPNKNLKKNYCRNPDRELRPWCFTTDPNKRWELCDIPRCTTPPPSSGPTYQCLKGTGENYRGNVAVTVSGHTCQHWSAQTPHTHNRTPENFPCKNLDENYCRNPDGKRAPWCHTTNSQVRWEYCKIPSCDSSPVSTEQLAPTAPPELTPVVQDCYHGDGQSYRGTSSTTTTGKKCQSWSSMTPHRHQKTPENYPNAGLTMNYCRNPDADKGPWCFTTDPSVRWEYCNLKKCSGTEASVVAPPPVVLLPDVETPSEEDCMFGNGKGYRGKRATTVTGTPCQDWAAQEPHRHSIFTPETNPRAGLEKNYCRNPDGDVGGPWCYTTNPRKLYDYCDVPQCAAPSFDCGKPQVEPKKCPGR
T3 sequence (P00747 581-810 limits assumed): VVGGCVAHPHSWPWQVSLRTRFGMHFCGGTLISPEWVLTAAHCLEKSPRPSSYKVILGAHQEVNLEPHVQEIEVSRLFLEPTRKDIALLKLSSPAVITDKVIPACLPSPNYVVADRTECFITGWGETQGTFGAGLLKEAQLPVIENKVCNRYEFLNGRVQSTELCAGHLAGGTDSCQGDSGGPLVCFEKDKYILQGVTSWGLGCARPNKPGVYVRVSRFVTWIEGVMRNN
T6 sequence (P07477 whole entry): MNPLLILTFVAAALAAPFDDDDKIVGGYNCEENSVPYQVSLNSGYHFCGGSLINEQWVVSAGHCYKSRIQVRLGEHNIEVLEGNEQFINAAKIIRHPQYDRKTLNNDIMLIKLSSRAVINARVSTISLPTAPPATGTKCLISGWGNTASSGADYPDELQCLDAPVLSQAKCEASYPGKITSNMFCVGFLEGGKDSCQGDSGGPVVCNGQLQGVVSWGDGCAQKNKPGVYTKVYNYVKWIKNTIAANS

For the molecule `C=C1CC(C)(C)CC(=O)O1`, the Ks/i was 43.3 µM in [1] and 104 µM in experiment [5]. For the same molecule, the results for the ka in experiment [2] and in experiment [3] were 0.51 min⁻¹ and 0.77 min⁻¹, respectively. Also, the ka/Ki in experiment [4] stood at 83.3 M⁻¹ s⁻¹; in experiment [6] it was 333 M⁻¹ s⁻¹.

For `CC1CC(=O)O/C(=C/Br)C1` (stereo not drawn), the ka/Ki in [7] is 333 M⁻¹ s⁻¹; in [8] it was 16.7 M⁻¹ s⁻¹. Also, the ka amounted to 0.33 min⁻¹ in experiment [9] and 0.48 min⁻¹ in experiment [12]. Further, the Ks/i in experiment [10] came to 22.6 µM; in experiment [11], 216 µM.

Take `C=C1CCC(c2ccc(CNC(=N)N)cc2)C(=O)O1` (stereo not drawn): the ka/Ki turned out to be 2000 M⁻¹ s⁻¹ in experiment [13], 467000 M⁻¹ s⁻¹ in experiment [17] and 2500 M⁻¹ s⁻¹ in experiment [24]. The Ks/i came out at 37.9 µM in [14], 0.35 µM in [22] and 466 µM in experiment [23]. Besides, the Kd result is “Not measurable” in experiment [15], 0.0001 s⁻¹ in experiment [19] and 0.000733 s⁻¹ in [21]. In addition, the ka in experiment [16] worked out at 9.8 min⁻¹; in experiment [18] it was 57 min⁻¹; in experiment [20], 5.58 min⁻¹.

For the molecule `N=C(N)Nc1ccc(C2CC/C(=C\I)OC2=O)cc1` (stereo not drawn), the ka in experiment [25] was 7.22 min⁻¹; in [27], 18.6 min⁻¹; in experiment [28], 12.9 min⁻¹; in experiment [33], 13.6 min⁻¹. The ka/Ki was determined as 7.55e+06 M⁻¹ s⁻¹ in [26], 50000 M⁻¹ s⁻¹ in experiment [31], 233000 M⁻¹ s⁻¹ in experiment [32] and 1.95e+06 M⁻¹ s⁻¹ in experiment [35]. Besides, the Ks/i in experiment [29] turned out to be 0.03 µM; in experiment [30], 0.93 µM; in [34] it was 0.16 µM; in [36] it was 2.4 µM.

Regarding `CC(C)C1CC/C(=C/Br)OC1=O` (stereo not drawn), the ka stood at 1.6 min⁻¹ in [37], 0.18 min⁻¹ in [38], 0.28 min⁻¹ in experiment [43] and 2.4 min⁻¹ in experiment [44]. Besides, the Ks/i in experiment [39] stood at 0.08 µM; in experiment [40] it was 2.3 µM; in experiment [47] it was 65 µM; in experiment [48], 58.8 µM. The ka/Ki in experiment [41] came to 83.3 M⁻¹ s⁻¹; in experiment [42], 11700 M⁻¹ s⁻¹; in experiment [45], 667 M⁻¹ s⁻¹; in [46] it was 37500 M⁻¹ s⁻¹.
